Source: patent publication US8735387B2, “Oxazolopyrimidines as Edg-1 receptor agonists” (Sanofi, priority 2008, dated 2014)

These molecules were tested against T1, human Edg-1 receptor (Homo sapiens, UniProt P21453) (assay: GTP-γ-S assay using human Edg-1 receptors (scintillation proximity assay, membrane preparation from CHO Flp-In cell line)). Conditions: example compound at 10 μM; relative to 10 μM S1P; GTP-γ-S SPA, human Edg-1 membranes.
T1 construct: expressed in transfected cells; membrane preparation
T1 sequence (P21453 whole entry): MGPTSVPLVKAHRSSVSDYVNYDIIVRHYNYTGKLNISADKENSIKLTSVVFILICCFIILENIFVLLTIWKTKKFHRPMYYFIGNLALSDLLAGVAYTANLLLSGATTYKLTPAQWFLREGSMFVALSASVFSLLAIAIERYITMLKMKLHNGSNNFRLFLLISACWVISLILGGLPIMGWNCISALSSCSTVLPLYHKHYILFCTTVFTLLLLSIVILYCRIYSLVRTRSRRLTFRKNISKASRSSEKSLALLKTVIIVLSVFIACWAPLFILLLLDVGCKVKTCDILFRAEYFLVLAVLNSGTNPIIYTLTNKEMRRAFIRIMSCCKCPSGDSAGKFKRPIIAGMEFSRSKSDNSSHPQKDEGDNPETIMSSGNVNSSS
Format: biochemical
In short: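 Membranes came from Flp-In CHO cells constitutively expressing human Edg-1 carrying an N-terminal FLAG tag. Compound-induced receptor activation was read as GTP-γ-S binding in a scintillation proximity format.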

In order of falling “% Activation (Edg-1 receptor activation in percent of the activation by 10 μM S1P)” value:
1. CCCOc1nc(Cc2ccc(Cl)cc2)nc2oc(-c3cc(C)c(OCC(O)CNC4CCN(C)CC4)c(C)c3)nc12 (stereo not drawn) [Example 313]  143%
2. CCCOc1nc(Cc2ccccc2)nc2oc(-c3cccc(OC)c3)nc12 [Example 317]  105%
3. CCOc1nc(CC2CCCCC2)nc2oc(-c3cccc(C)c3)nc12 [Example 309]  104%
4. CCOc1nc(Cc2ccc(Cl)cc2)nc2oc(-c3cc(C)c(OCC(=O)N4CC[C@@H]5C[C@@]54C(=O)O)c(C)c3)nc12 [Example 318]  101%
5. CCOc1nc(Cc2ccc(Cl)cc2)nc2oc(-c3cc(C)c(OCC(=O)NCCC(=O)O)c(C)c3)nc12 [Example 314]  96%
6. CCOc1nc(Cc2ccc(Cl)cc2)nc2oc(-c3cccc(OCC(=O)O)c3)nc12 [Example 310]  87%
7. CCCOc1nc(Cc2ccc(Cl)cc2)nc2oc(-c3cc(C)c(OCC4CC4)c(C)c3)nc12 [Example 315]  79%
8. CCOc1nc(Cc2ccc(Cl)cc2)nc2oc(-c3cc(C)c(OCC(=O)N4CCC[C@H]4C(=O)O)c(C)c3)nc12 [Example 311]  78%
9. CCCOc1nc(Cc2ccc(Cl)cc2)nc2oc(-c3cc(C)c(OCC(=O)CC)c(C)c3)nc12 [Example 316]  70%
